Bridge positions count the residues as written; N and C are the ends. Square brackets hold non-standard residues; d marks the D form. Peptide text beside a SMILES is read from it. Phe(4-F) = N[C@@H](Cc1ccc(F)cc1)C(=O)O; 4Pal = N[C@@H](Cc1ccncc1)C(=O)O; Cit = NC(=O)NCCC[C@H](N)C(=O)O; Orn = NCCC[C@H](N)C(=O)O
Experiments:
[1] = system: human red blood cells (hRBC); test: Hemolysis; format: cell-based
Procedure, shortened: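 Percent lysis taken as OD540 of peptide-treated sample over OD540 of the water/0.1% Triton X-100 full-lysis control, with PBS giving 0%. Peptides at 100 μM exposed to PBS-washed human RBCs (20% v/v) for 1 hour at 37° C. before centrifugation and 20-fold dilution of supernatant.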

in vitro = details: human
CXCR4 = CXCR4 (Homo sapiens, UniProt P61073); test: Ca2+-assay method 2 (Flexstation, SDF-1 induced calcium mobilization); format: cell-based; design: expressed in transfected cells; host or cells: mouse pre-B cell line 300-19; details: method 2 (Ex. 54-160), mouse pre-B cell line 300-19 with human CXCR4, 10 nM SDF-1; read-out: IC50 (nM) Ca^2+ assay
CXCR4, sequence (P61073 whole entry): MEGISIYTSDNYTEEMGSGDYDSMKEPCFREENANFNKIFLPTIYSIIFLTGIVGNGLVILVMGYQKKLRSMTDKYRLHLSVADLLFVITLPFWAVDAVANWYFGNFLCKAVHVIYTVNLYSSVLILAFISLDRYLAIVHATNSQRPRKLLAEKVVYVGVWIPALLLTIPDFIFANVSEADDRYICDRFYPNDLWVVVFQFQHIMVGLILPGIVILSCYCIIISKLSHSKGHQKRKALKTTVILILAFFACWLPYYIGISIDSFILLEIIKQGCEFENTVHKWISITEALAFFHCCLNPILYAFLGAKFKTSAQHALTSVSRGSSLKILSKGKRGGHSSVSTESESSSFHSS
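For GI50 in this document: MTT reduction read as absorbance at 595 nm, blank-corrected and expressed as percent growth relative to the time-zero cell reading, triplicate wells per concentration.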

Row | Compound | Hemolysis at 100 μM [1] | GI50 at 48 h (in vitro) | IC50 (CXCR4)
1 | N=C(N)NCCC[C@@H]1NC(=O)[C@@H]2CSSC[C@H](NC(=O)[C@H](Cc3c[nH]c4ccccc34)NC(=O)[C@H](CCCN)NC(=O)[C@H](CCCNC(=N)N)NC(=O)[C@H]3CCCN3C(=O)CNC1=O)C(=O)N[C@@H](Cc1ccc(O)cc1)C(=O)N[C@@H](CCCNC(N)=O)C(=O)N[C@@H](CCCCN)C(=O)N1CCC[C@@H]1C(=O)N1CCC[C@H]1C(=O)N[C@@H](Cc1ccc(O)cc1)C(=O)N[C@@H](CCCNC(=N)N)C(=O)N[C@@H](CCCNC(N)=O)C(=O)N2 [Ex. 117] (cyclo(YR[Cit]CRG[dP]R[Orn]WCY[Cit]K[dP]P); disulfide 4-11) | 0% | 44 µM | 3.4 nM
2 | C[C@@H](O)[C@@H]1NC(=O)[C@H](CCCNC(=N)N)NC(=O)[C@H](Cc2ccc(O)cc2)NC(=O)[C@@H]2CCCN2C(=O)[C@H]2CCCN2C(=O)[C@H](CCCCN)NC(=O)[C@H](CCC(N)=O)NC(=O)[C@H](Cc2ccc(O)cc2)NC(=O)[C@@H]2CSSC[C@H](NC1=O)C(=O)N[C@@H](CCCNC(=N)N)C(=O)NCC(=O)N1CCC[C@@H]1C(=O)N[C@@H](Cc1ccncc1)C(=O)N[C@@H](CCCNC(=N)N)C(=O)N[C@@H](Cc1c[nH]c3ccccc13)C(=O)N2 [Ex. 118] (cyclo(YRTCRG[dP][4Pal]RWCYQK[dP]P); disulfide 4-11) | 0% | 52 µM | 7.6 nM
3 | C[C@@H](O)[C@@H]1NC(=O)[C@H](Cc2ccncc2)NC(=O)[C@H](Cc2ccc(O)cc2)NC(=O)[C@@H]2CCCN2C(=O)[C@H]2CCCN2C(=O)[C@H](CCCCN)NC(=O)[C@H](CCC(N)=O)NC(=O)[C@H](Cc2ccc(O)cc2)NC(=O)[C@@H]2CSSC[C@H](NC1=O)C(=O)N[C@@H](CCCNC(=N)N)C(=O)NCC(=O)N1CCC[C@@H]1C(=O)N[C@@H](CCCNC(=N)N)C(=O)N[C@@H](CCCNC(=N)N)C(=O)N[C@@H](Cc1c[nH]c3ccccc13)C(=O)N2 [Ex. 119] (cyclo(Y[4Pal]TCRG[dP]RRWCYQK[dP]P); disulfide 4-11) | 0% | 63 µM | 9.4 nM
4 | N=C(N)NCCC[C@@H]1NC(=O)[C@@H]2CSSC[C@H](NC(=O)[C@H](Cc3c[nH]c4ccccc34)NC(=O)[C@H](CCCNC(=N)N)NC(=O)[C@H](CCCNC(=N)N)NC(=O)[C@H]3CCCN3C(=O)CNC1=O)C(=O)N[C@@H](Cc1ccc(O)cc1)C(=O)N[C@@H](CCCNC(N)=O)C(=O)N[C@@H](CCC(N)=O)C(=O)N1CCC[C@@H]1C(=O)N1CCC[C@H]1C(=O)N[C@@H](Cc1ccc(O)cc1)C(=O)N[C@@H](CCCNC(=N)N)C(=O)N[C@@H](CCCNC(N)=O)C(=O)N2 [Ex. 121] (cyclo(YR[Cit]CRG[dP]RRWCY[Cit]Q[dP]P); disulfide 4-11) | 0% | 79 µM | 6.5 nM
5 | N=C(N)NCCC[C@@H]1NC(=O)[C@@H]2CSSC[C@H](NC(=O)[C@H](Cc3c[nH]c4ccccc34)NC(=O)[C@H](CCCNC(=N)N)NC(=O)[C@H](Cc3ccc(F)cc3)NC(=O)[C@H]3CCCN3C(=O)CNC1=O)C(=O)N[C@@H](Cc1ccc(O)cc1)C(=O)N[C@@H](CCCNC(N)=O)C(=O)N[C@@H](CCCCN)C(=O)N1CCC[C@@H]1C(=O)N1CCC[C@H]1C(=O)N[C@@H](Cc1ccc(O)cc1)C(=O)N[C@@H](CCCNC(=N)N)C(=O)N[C@@H](CCCNC(N)=O)C(=O)N2 [Ex. 122] (cyclo(YR[Cit]CRG[dP][Phe(4-F)]RWCY[Cit]K[dP]P); disulfide 4-11) | 0% | 60 µM | 8.8 nM
6 | N=C(N)NCCC[C@@H]1NC(=O)[C@@H]2CSSC[C@H](NC(=O)[C@H](Cc3c[nH]c4ccccc34)NC(=O)[C@H](CCCNC(=N)N)NC(=O)[C@H](CCCNC(=N)N)NC(=O)[C@H]3CCCN3C(=O)CNC1=O)C(=O)N[C@@H](Cc1ccc(O)cc1)C(=O)N[C@@H](CCCNC(N)=O)C(=O)N[C@@H](CCCCN)C(=O)N1CCC[C@@H]1C(=O)N1CCC[C@H]1C(=O)N[C@@H](Cc1ccc(O)cc1)C(=O)N[C@@H](CCCNC(=N)N)C(=O)N[C@@H](CCCNC(N)=O)C(=O)N2 [Ex. 123] (cyclo(YR[Cit]CRG[dP]RRWCY[Cit]K[dP]P); disulfide 4-11) | 0% | 80 µM | 10 nM
